Measured values: patent publication US9326539B2, “Compositions comprising dietary fat complexers and methods for their use” (Soho Flordis International Pty. Ltd., priority 2002, dated 2016)

Experiments:
[1] = in vitro study of vegetable oil, water and cyclodextrin: band of wax-like complex; assay type: physicochemical; details: vegetable oil 4 g, water 6 g, varying amounts of cyclodextrin (100-2,000 mg), centrifuged
Experimental: FIG. 9A-9C depicts the results of an in vitro study of vegetable oil (4 g), water (6 g) (with added food coloring for contrast) and varying amounts of (A) α-cyclodextrin (100-2,000 mg, right to left), (B) β-cyclodextrin or (C) γ-cyclodextrin. A band of “wax-like” material layered between the oil and aqueous phases is apparent in the tubes. […] Note the increasing size (right to left) of a white layer of un-reacted α-cyclodextrin in the bottom of the tubes. This material is displaced from solution by either the oil or the α-cyclodextrin-oil complex. These tubes were centrifuged in order to improve the definition of the layers. The “wax-like” complex is of such a consistency that all of the tubes except for the furthest two to the right can be inverted without leakage of the aqueous phase around the complex.
FIGS. 9A-9C depict the results of an in vitro study of vegetable oil (4 g), water (6 g) (with added food coloring for contrast) and varying amounts of (A) α-cyclodextrin (100-2,000 mg, right to left), (B) β-cyclodextrin or (C) γ-cyclodextrin. A band of “wax-like” material layered between the oil and aqueous phases is apparent in the tubes. […] Note the increasing size (right to left) of a white layer of un-reacted α-cyclodextrin in the bottom of the tubes. This material is displaced from solution by either the oil or the α-cyclodextrin-oil complex. These tubes were centrifuged in order to improve the definition of the layers. The “wax-like” complex is of such a consistency that all of the tubes in 9A except for the furthest two to the right can be inverted without leakage of the aqueous phase around the complex.
Thus one would not have expected α-cyclodextrin to complex triglyceride molecules because the molecules would not fit within the pore of the α α-cyclodextrin. […] The white substance in the bottom of the tubes is precipitated cyclodextrin.

[2] = Wistar rat low fat/high fat diet feeding study: food and energy intake, body weight, body composition; assay type: in vivo, Wistar rats; details: 6 week study, α-cyclodextrin:fat 1:10 w/w in diet
From the text: To examine the effect of α-cyclodextrin on body weight gain and plasma lipid levels in animals fed high fat and low fat diets, we conducted a short-term feeding study using Wistar rats. Forty-two male Wistar rats, 10 weeks old, were obtained from Harlan-Sprague Dawley. Following a one-week adaptation while being fed the control low fat diet (LF), they were divided equally into two groups, one low-fat (LF) diet and the other high-fat (HF) diet. These two groups were further divided into two subgroups. Two groups were fed the LF or HF diet and served as controls for the other two test groups which were fed the LF or HF diet containing α-cyclodextrin, wherein the amount of α-cyclodextrin was such that the ratio of α-cyclodextrin to fat in the food was 1:10 w/w. […]
If this were the case it would be difficult to imagine being able to feed enough of the α-cyclodextrin to an animal in order to complex sufficient triglycerides to make a significant difference in body weight as triglycerides and α-cyclodextrin have similar molecular weights. However, from the data disclosed herein wherein e.g., a diet comprising 4% α-cyclodextrin and 40% fat inhibits weight gain and reduces body fat mass, as the molecular weights are very similar, we have calculated that one α-cyclodextrin molecule can complex approximately nine molecules of triglyceride, the equivalent of 27 free fatty acids. […]

[3] = target: T1, porcine pancreatic lipase (Sus scrofa, UniProt P00591); experiment: lipolytic activity of porcine pancreatic lipase on purified olive oil premixed with α-cyclodextrin; assay type: biochemical
T1 sequence (P00591 1-450): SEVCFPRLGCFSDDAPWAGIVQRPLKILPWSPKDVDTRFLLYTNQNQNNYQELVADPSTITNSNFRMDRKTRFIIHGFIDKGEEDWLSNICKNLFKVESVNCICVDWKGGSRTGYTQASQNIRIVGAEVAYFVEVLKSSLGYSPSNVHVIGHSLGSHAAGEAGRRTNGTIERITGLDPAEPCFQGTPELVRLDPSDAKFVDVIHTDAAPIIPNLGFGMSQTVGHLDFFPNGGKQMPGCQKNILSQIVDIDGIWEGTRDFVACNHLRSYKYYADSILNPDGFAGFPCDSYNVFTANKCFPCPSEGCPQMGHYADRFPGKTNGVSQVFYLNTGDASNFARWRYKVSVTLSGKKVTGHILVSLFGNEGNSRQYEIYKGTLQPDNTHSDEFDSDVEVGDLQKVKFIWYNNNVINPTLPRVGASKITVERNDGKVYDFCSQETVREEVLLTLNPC
From the text: If this were the case it would be difficult to imagine being able to feed enough of the α-cyclodextrin to an animal in order to complex sufficient triglycerides to make a significant difference in body weight as triglycerides and α-cyclodextrin have similar molecular weights. However, from the data disclosed herein wherein e.g., a diet comprising 4% α-cyclodextrin and 40% fat inhibits weight gain and reduces body fat mass, as the molecular weights are very similar, we have calculated that one α-cyclodextrin molecule can complex approximately nine molecules of triglyceride, the equivalent of 27 free fatty acids. Thus we can convert this directly to I gram of α-cyclodextrin complexes approximately 9 grams of triglyceride. […] As these particles are formed in the midst of chyme, a very complex “soup”, the particles may be analogous to lipoprotein particles of the blood stream.

[4] = two additional volunteers, about 2 g α-cyclodextrin per meal: cholesterol, LDL, cholesterol/HDL, triglycerides; assay type: in vivo, human
Experimental: α-cyclodextrin was also added to the diet of two additional volunteers. The α-cyclodextrin was added in a proportion such that each meal comprised about 2 g of α-cyclodextrin. Table 3 sets forth the effects of the α-cyclodextrin on reducing the levels of cholesterol, LDL, cholesterol/HDL ratio and serum triglycerides. It is of note that both of these volunteers, as well as the initial volunteer, had been and still were taking one of the statin pharmaceuticals for lowering their blood serum cholesterol. All three volunteers were taking different statins. In addition volunteer one was taking 3 g/d niacin which they reduced by 50% in the first two weeks of the study because of the unpleasant side effects of this medication.

[5] = volunteer one, 2.5 months, on statin and niacin
[6] = volunteer two, 6 months, on statin

For `OC[C@H]1O[C@@H]2O[C@H]3[C@H](O)[C@@H](O)[C@@H](O[C@H]4[C@H](O)[C@@H](O)[C@@H](O[C@H]5[C@H](O)[C@@H](O)[C@@H](O[C@H]6[C@H](O)[C@@H](O)[C@@H](O[C@H]7[C@H](O)[C@@H](O)[C@@H](O[C@H]1[C@H](O)[C@H]2O)O[C@@H]7CO)O[C@@H]6CO)O[C@@H]5CO)O[C@@H]4CO)O[C@@H]3CO` [α-cyclodextrin], the “band of wax-like material (complexed fat) between oil and aqueous phases” value [1] was “maximum in the tube labeled 10% (400 mg α-cyclodextrin/4 g oil)”, the “rate of body weight gain” value [2] was “gained weight at a slower rate relative to their respective control groups” and the “lipolytic activity of porcine pancreatic lipase” value [3] was “significantly reduced”. The “Cholesterol (change)” value [4, 5] was −18.5%, the “Cholesterol/HDL (change)” value [4, 5] was −16.1% and the “LDL (change)” value [4, 5] was −25.6%. For the same compound, the “TG (change)” value [4, 5] was −22.2%, the “Cholesterol (change)” value [4, 6] was −10.2% and the “Cholesterol/HDL (change)” value [4, 6] was −8.8%. The “LDL (change)” value [4, 6] was −15.0 and the “TG (change)” value [4, 6] was −37.5%.
